# Laboratory results taken from US20240238242A1, “EGCG buccal tablet and use thereof” (priority 2023, published 2024).
# Where “and” joins values, the source holds several entries; their conditions need not be identical. Identical values can stand only once.
# System: Coronavirus (hCoV-229E)
# Assay: Inactivation efficiency against coronavirus hCoV-229E strain (residual TCID50 on Huh-7 cells)
# Type: cell-based
# Details: for CPE test (virus replication in cell wells): wells 1-10; for average inactivation efficiency against virus: three experiments
smiles,measurement,setting,value
"O=C(O[C@@H]1Cc2c(O)cc(O)cc2O[C@@H]1c1cc(O)c(O)c(O)c1)c1cc(O)c(O)c(O)c1 [EGCG, Epigallocatechin gallate]",CPE test (virus replication in cell wells),"0.2 mM EGCG + hCoV-229E virus, co-incubated 1 minute, first experiment, dilution factor 10^1",+
same,CPE test (virus replication in cell wells),"0.2 mM EGCG + hCoV-229E virus, co-incubated 1 minute, first experiment, dilution factor 10^2",+
same,CPE test (virus replication in cell wells),"0.2 mM EGCG + hCoV-229E virus, co-incubated 1 minute, first experiment, dilution factor 10^3",+
same,CPE test (virus replication in cell wells),"0.2 mM EGCG + hCoV-229E virus, co-incubated 1 minute, first experiment, dilution factor 10^4",+
same,CPE test (virus replication in cell wells),"0.2 mM EGCG + hCoV-229E virus, co-incubated 1 minute, first experiment, dilution factor 10^5",− and +
same,CPE test (virus replication in cell wells),"0.2 mM EGCG + hCoV-229E virus, co-incubated 1 minute, first experiment, dilution factor 10^6",−
same,CPE test (virus replication in cell wells),"0.2 mM EGCG + hCoV-229E virus, co-incubated 1 minute, first experiment, dilution factor 10^7",−
same,CPE test (virus replication in cell wells),"0.2 mM EGCG + hCoV-229E virus, co-incubated 1 minute, first experiment, dilution factor 10^8",−
same,CPE test (virus replication in the cell wells),"0.2 mM EGCG + virus, co-incubated 5 minute, first experiment, dilution factor 10^1, wells 1-10",+
same,CPE test (virus replication in the cell wells),"0.2 mM EGCG + virus, co-incubated 5 minute, first experiment, dilution factor 10^2, wells 1-10",+
same,CPE test (virus replication in the cell wells),"0.2 mM EGCG + virus, co-incubated 5 minute, first experiment, dilution factor 10^3, wells 1-10",+
same,CPE test (virus replication in the cell wells),"0.2 mM EGCG + virus, co-incubated 5 minute, first experiment, dilution factor 10^4, wells 1-10",+
same,CPE test (virus replication in the cell wells),"0.2 mM EGCG + virus, co-incubated 5 minute, first experiment, dilution factor 10^5, wells 1-10",+ and −
same,CPE test (virus replication in the cell wells),"0.2 mM EGCG + virus, co-incubated 5 minute, first experiment, dilution factor 10^6, wells 1-10",+ and −
same,CPE test (virus replication in the cell wells),"0.2 mM EGCG + virus, co-incubated 5 minute, first experiment, dilution factor 10^7, wells 1-10",−
same,CPE test (virus replication in the cell wells),"0.2 mM EGCG + virus, co-incubated 5 minute, first experiment, dilution factor 10^8, wells 1-10",−
same,CPE test (virus replication in the cell wells),"0.2 mM EGCG + virus, co-incubated 5 minute, second experiment, dilution factor 10^1, wells 1-10",+
same,CPE test (virus replication in the cell wells),"0.2 mM EGCG + virus, co-incubated 5 minute, second experiment, dilution factor 10^2, wells 1-10",+
same,CPE test (virus replication in the cell wells),"0.2 mM EGCG + virus, co-incubated 5 minute, second experiment, dilution factor 10^3, wells 1-10",+
same,CPE test (virus replication in the cell wells),"0.2 mM EGCG + virus, co-incubated 5 minute, second experiment, dilution factor 10^4, wells 1-10",+
same,CPE test (virus replication in the cell wells),"0.2 mM EGCG + virus, co-incubated 5 minute, second experiment, dilution factor 10^5, wells 1-10",+ and −
same,CPE test (virus replication in the cell wells),"0.2 mM EGCG + virus, co-incubated 5 minute, second experiment, dilution factor 10^6, wells 1-10",− and +
same,CPE test (virus replication in the cell wells),"0.2 mM EGCG + virus, co-incubated 5 minute, second experiment, dilution factor 10^7, wells 1-10",−
same,CPE test (virus replication in the cell wells),"0.2 mM EGCG + virus, co-incubated 5 minute, second experiment, dilution factor 10^8, wells 1-10",−
same,CPE test (virus replication in the cell wells),"0.2 mM EGCG + virus, co-incubated 5 minutes, dilution factor 10^1, wells 1-10, third experiment",+
same,CPE test (virus replication in the cell wells),"0.2 mM EGCG + virus, co-incubated 5 minutes, dilution factor 10^2, wells 1-10, third experiment",+
same,CPE test (virus replication in the cell wells),"0.2 mM EGCG + virus, co-incubated 5 minutes, dilution factor 10^3, wells 1-10, third experiment",+
same,CPE test (virus replication in the cell wells),"0.2 mM EGCG + virus, co-incubated 5 minutes, dilution factor 10^4, wells 1-10, third experiment",+ and −
same,CPE test (virus replication in the cell wells),"0.2 mM EGCG + virus, co-incubated 5 minutes, dilution factor 10^5, wells 1-10, third experiment",+
same,CPE test (virus replication in the cell wells),"0.2 mM EGCG + virus, co-incubated 5 minutes, dilution factor 10^6, wells 1-10, third experiment",− and +
same,CPE test (virus replication in the cell wells),"0.2 mM EGCG + virus, co-incubated 5 minutes, dilution factor 10^7, wells 1-10, third experiment",−
same,CPE test (virus replication in the cell wells),"0.2 mM EGCG + virus, co-incubated 5 minutes, dilution factor 10^8, wells 1-10, third experiment",−
same,CPE test (virus replication in cell wells),"0.2 mM EGCG + virus, hCoV-229E co-incubated 1 minute, second experiment, dilution factor 10^1",+
same,CPE test (virus replication in cell wells),"0.2 mM EGCG + virus, hCoV-229E co-incubated 1 minute, second experiment, dilution factor 10^2",+
same,CPE test (virus replication in cell wells),"0.2 mM EGCG + virus, hCoV-229E co-incubated 1 minute, second experiment, dilution factor 10^3",+
same,CPE test (virus replication in cell wells),"0.2 mM EGCG + virus, hCoV-229E co-incubated 1 minute, second experiment, dilution factor 10^4",+
same,CPE test (virus replication in cell wells),"0.2 mM EGCG + virus, hCoV-229E co-incubated 1 minute, second experiment, dilution factor 10^5",+ and −
same,CPE test (virus replication in cell wells),"0.2 mM EGCG + virus, hCoV-229E co-incubated 1 minute, second experiment, dilution factor 10^6",−
same,CPE test (virus replication in cell wells),"0.2 mM EGCG + virus, hCoV-229E co-incubated 1 minute, second experiment, dilution factor 10^7",−
same,CPE test (virus replication in cell wells),"0.2 mM EGCG + virus, hCoV-229E co-incubated 1 minute, second experiment, dilution factor 10^8",−
same,CPE test (virus replication in cell wells),"0.2 mM EGCG + virus, hCoV-229E co-incubated 1 minute, third experiment, dilution factor 10^1",+
same,CPE test (virus replication in cell wells),"0.2 mM EGCG + virus, hCoV-229E co-incubated 1 minute, third experiment, dilution factor 10^2",+
same,CPE test (virus replication in cell wells),"0.2 mM EGCG + virus, hCoV-229E co-incubated 1 minute, third experiment, dilution factor 10^3",+
same,CPE test (virus replication in cell wells),"0.2 mM EGCG + virus, hCoV-229E co-incubated 1 minute, third experiment, dilution factor 10^4",+
same,CPE test (virus replication in cell wells),"0.2 mM EGCG + virus, hCoV-229E co-incubated 1 minute, third experiment, dilution factor 10^5",− and +
same,CPE test (virus replication in cell wells),"0.2 mM EGCG + virus, hCoV-229E co-incubated 1 minute, third experiment, dilution factor 10^6",+ and −
same,CPE test (virus replication in cell wells),"0.2 mM EGCG + virus, hCoV-229E co-incubated 1 minute, third experiment, dilution factor 10^7",−
same,CPE test (virus replication in cell wells),"0.2 mM EGCG + virus, hCoV-229E co-incubated 1 minute, third experiment, dilution factor 10^8",−
same,inactivation efficiency against the virus,"0.2 mM EGCG, hCoV-229E virus, 1 minute, single experiment",36.90% and 20.57%
same,average inactivation efficiency against virus,"0.2 mM EGCG, hCoV-229E virus, 1 minute",31.46%
same,average inactivation efficiency against virus,"0.2 mM EGCG, hCoV-229E virus, 5 minutes",13.71%
same,CPE test (virus replication in cell wells),"1 mM EGCG + hCoV-229E virus, co-incubated 1 minute, first experiment, dilution factor 10^1",+
same,CPE test (virus replication in cell wells),"1 mM EGCG + hCoV-229E virus, co-incubated 1 minute, first experiment, dilution factor 10^2",+
same,CPE test (virus replication in cell wells),"1 mM EGCG + hCoV-229E virus, co-incubated 1 minute, first experiment, dilution factor 10^3",+
same,CPE test (virus replication in cell wells),"1 mM EGCG + hCoV-229E virus, co-incubated 1 minute, first experiment, dilution factor 10^4",+
same,CPE test (virus replication in cell wells),"1 mM EGCG + hCoV-229E virus, co-incubated 1 minute, first experiment, dilution factor 10^5",+ and −
same,CPE test (virus replication in cell wells),"1 mM EGCG + hCoV-229E virus, co-incubated 1 minute, first experiment, dilution factor 10^6",−
same,CPE test (virus replication in cell wells),"1 mM EGCG + hCoV-229E virus, co-incubated 1 minute, first experiment, dilution factor 10^7",−
same,CPE test (virus replication in cell wells),"1 mM EGCG + hCoV-229E virus, co-incubated 1 minute, first experiment, dilution factor 10^8",−
same,CPE test (virus replication in the cell wells),"1 mM EGCG + virus, co-incubated 5 minute, first experiment, dilution factor 10^1, wells 1-10",+
same,CPE test (virus replication in the cell wells),"1 mM EGCG + virus, co-incubated 5 minute, first experiment, dilution factor 10^2, wells 1-10",+
same,CPE test (virus replication in the cell wells),"1 mM EGCG + virus, co-incubated 5 minute, first experiment, dilution factor 10^3, wells 1-10",+
same,CPE test (virus replication in the cell wells),"1 mM EGCG + virus, co-incubated 5 minute, first experiment, dilution factor 10^4, wells 1-10",+
same,CPE test (virus replication in the cell wells),"1 mM EGCG + virus, co-incubated 5 minute, first experiment, dilution factor 10^5, wells 1-10",− and +
same,CPE test (virus replication in the cell wells),"1 mM EGCG + virus, co-incubated 5 minute, first experiment, dilution factor 10^6, wells 1-10",− and +
same,CPE test (virus replication in the cell wells),"1 mM EGCG + virus, co-incubated 5 minute, first experiment, dilution factor 10^7, wells 1-10",−
same,CPE test (virus replication in the cell wells),"1 mM EGCG + virus, co-incubated 5 minute, first experiment, dilution factor 10^8, wells 1-10",−
same,CPE test (virus replication in the cell wells),"1 mM EGCG + virus, co-incubated 5 minute, second experiment, dilution factor 10^1, wells 1-10",+
same,CPE test (virus replication in the cell wells),"1 mM EGCG + virus, co-incubated 5 minute, second experiment, dilution factor 10^2, wells 1-10",+
same,CPE test (virus replication in the cell wells),"1 mM EGCG + virus, co-incubated 5 minute, second experiment, dilution factor 10^3, wells 1-10",+
same,CPE test (virus replication in the cell wells),"1 mM EGCG + virus, co-incubated 5 minute, second experiment, dilution factor 10^4, wells 1-10",+
same,CPE test (virus replication in the cell wells),"1 mM EGCG + virus, co-incubated 5 minute, second experiment, dilution factor 10^5, wells 1-10",+ and −
same,CPE test (virus replication in the cell wells),"1 mM EGCG + virus, co-incubated 5 minute, second experiment, dilution factor 10^6, wells 1-10",−
same,CPE test (virus replication in the cell wells),"1 mM EGCG + virus, co-incubated 5 minute, second experiment, dilution factor 10^7, wells 1-10",−
